Experiments:
[1] = biological target: T1, Q148C/SSS-mutant integrase (Human immunodeficiency virus type 1 group M subtype B, UniProt P04585, C1203S/C1212S/C1427S/Q1295C); assay: biochemical; format: binding, HIV-1
T1 construct: 10 μM recombinant Q148C/SSS-mutant integrase was incubated with 10 μM DNA substrate; made in house
Procedure: Briefly, 10 μM recombinant Q148C/SSS-mutant integrase was incubated with 10 μM DNA substrate (FIG. 5A) containing tethered thiols in the presence of 20 mM Tris, pH 7.4, 10% glycerol and 7.5 mM of divalent cations (MgCl2 or MnCl2 as indicated) for 20 min at 37° C. Reactions were stopped by the addition of 20 mM methylmethanethiosulfonate (capping reagent). Non-reducing gel loading buffer (100 mM Tris-HCl, pH 6.8, 4% SDS, 0.2% bromophenol blue, 20% glycerol) was added and samples were heated at 95° C. before loading onto 16% tricine gels (Invitrogen, Carlsbad, Calif.). Gels were stained with Microwave Blue according to manufacturer's recommendations (Protiga, Frederick, Md.).
DNA (20 nM) containing a [5′-^32P]-label on one strand and a thiol-modified cytosine on the other strand was added and reactions were capped with methylmethanethiosulfonate at 1 minute. Following capping, non-reducing gel loading buffer (100 mM Tris-HCl, pH 6.8, 4% SDS, 0.2% bromophenol blue, 20% glycerol) was added and samples were directly loaded on 16% tricine gels (Invitrogen, Carlsbad, Calif.). Gels were dried and reaction products were quantitated using the same way as described above.

[2] = biological target: T2, HIV-1 integrase (Human immunodeficiency virus type 1 group M subtype B, UniProt P04585); assay: Strand transfer assay with preprocessed (19/21) DNA substrate; format: biochemical; details: In vitro IC50 Preprocessed substrate
T2 construct: Expression and purification of the recombinant HIV-1 integrase in Escherichia coli; made in house; host or cells: Escherichia coli
Procedure: (§1) Recombinant HIV integrase and oligonucleotide substrates. Expression and purification of the recombinant HIV-1 integrase in Escherichia coli were performed according to (Leh et al., 2000; Marchand et al., 2001) with addition of 10% glycerol to all buffers. The preparation of the Q148C/SSS-mutant integrase will be described elsewhere (Johnson et al., 2005). The oligonucleotide substrates, except those used for the disulfide crosslinking (FIG. 5A), were purchased from Integrated DNA Technologies, Inc. (Coraville, Iowa) and purified by polyacrylamide gel. The single-stranded oligonucleotides were 5′-end labeled with [γ^32P]-ATP (Perkin Elmer, Wellesley, M A) and T4 polynucleotide kinase (New England BioLabs, Ipswich, M A). Unincorporated nucleotide was removed using mini Quick Spin Oligo columns (Roche Diagnostics, Indianapolis, Ind.). Substrates were obtained after annealing with complementary non-labeled oligonucleotides. The thiol-modified substrate (FIG. 5A) for disulfide crosslinking assay was synthesized as essentially described by W. Santos and G. Verdine (Department of Chemistry and Chemical Biology, Harvard University, Cambridge, Mass.) (They and Verdine, 2002).
(§2) Integrase catalytic assays. Reactions were performed in 10 μl with 300 nM of recombinant IN, 20 nM of the 5′-end [^32P]-labeled oligonucleotide substrates and inhibitors at the indicated concentrations. 10% DMSO was included in controls. Reactions were incubated for 40 min at 37° C. in a buffer containing a final concentration of 25 mM MOPS, pH 7.2, 25 mM NaCl, 14.3 mM β-mercaptoethanol and 7.5 mM of divalent cations (MgCl2 or MnCl2 as indicated). Reactions were stopped by addition of 20 μl loading dye (10 mM EDTA, 98% deionized formamide, 0.025% xylene cyanol and 0.025% bromophenol blue). Reactions were heated at 95° C. for 1 min before electrophoresis in 20% polyacrylamide-7 M urea gels. Gels were dried and reaction products were visualized and quantitated with a Molecular Dynamics PhosphorImager (Sunnyvale, Calif.). Densitometric analyses were performed using ImageQuant from the Molecular Dynamics software. The concentrations at which enzyme activity was reduced by 50% (IC50), was determined using “Prism” software (GraphPad Software, San Diego, Calif.) for nonlinear regression to fit dose-response data to logistic curve models.

[3] = biological target: T2, HIV-1 integrase; assay: Disintegration assay with Y-oligomer substrate; format: biochemical; details: for IC50: In vitro IC50 Disintegration
Procedure: as §1, §2

[4] = biological target: T2, HIV-1 integrase; assay: Integrase catalytic assay, strand transfer (ST), 21 bp duplex substrate; format: biochemical; details: for IC50: In vitro IC50 21 bp substrate ST
Procedure: as §1, §2

[5] = biological target: T2, HIV-1 integrase; assay: Integrase catalytic assay, 3′-processing (3′-P), 21 bp duplex substrate; format: biochemical; details: In vitro IC50 21 bp substrate 3′-P
Procedure: as §1, §2

[6] = test system: MT-2 cells; format: cell-based; details: human, 4 days
Procedure: (§3) Inhibition of HIV-induced cytopathic effect in cell culture. The MT-2 cells were grown in RPMI-1640 medium with GlutaMAX™, supplemented with 10% (v/v) heat-inactivated fetal bovine serum (both from Gibco, Invitrogen corporation, Carlsbad). The cells were maintained at 37° C. in a humidified atmosphere of 5% CO2 in air. Every 4-5 days, cells were spun down and seeded at 2×10^5 cells/ml in new cell culture flasks. HIV ([…] isolate) was obtained from Advanced Biotechnology Incorporated (Columbia, Md.). The virus stock [3,2×10^4 CCID50 (50% cell culture infective dose) per ml as determined for MT-2 cells] was stored at −70° C. until used. Stock solutions of compounds were diluted using medium directly into 96-well assay plate (Costar, Corning inc, Corning, N.Y.).
(§4) Cells were then infected with 100 CCID50 or mock-infected. The cell cultures were incubated at 37° C. in a humidified atmosphere of 5% CO2 in air. […] The percent cell viability in drug treated uninfected and infected cells was determined based on the viability of the uninfected control drug treated cells. The concentration of drug required to inhibit approximately 50% of the HIV-1 induced cytotoxicity was calculated from the plot of compound concentration verses the percent viable cells.

[7] = biological target: HIV-1 protease (Human immunodeficiency virus type 1 group M subtype B, UniProt P04585); assay: Fluorimetric HIV-1 protease assay; format: biochemical; details: concentration up to 25 μM; data not shown
Procedure: Fluorimetric HIV-1 protease assay. The fluorescent HIV-1 protease substrate (RE-(EDANS)-SQNYPIVQK-(DABCYL)-R) was obtained from Molecular Probes, Inc. (Eugene, Oreg.). Substrate and buffer were pre-warmed at 37° C. for at least 20 min before use. The protease (25 nM final concentration) was incubated in the manufacturer's recommended assay buffer (100 mM Na acetate, 1M NaCl, 1 mM EDTA, 1 mM DTT, 10% DMSO and 1 mg ml^−1 BSA pH 4.7) at 37° C. in the presence of 1-25 μM NSC 18806 for 10 min and then added to the warmed substrate solution (40 μM) containing the different treatments to initiate the reaction. Acetyl pepstatin (Sigma, St. Louis, Mo.) at 20 nM was used a positive HIV-1 protease inhibitor control. The total assay volume was 100 µL. Fluorescence was monitored for 30 min in a fluorescence microplate reader (FMAX, Molecular Devices, Sunnyvale, Calif.) with 355 nm excitation and 460 nm emission filters and the rate of reactions compared for the different conditions.

[8] = test system: HIV-1IIIB; assay: Inhibition of HIV-induced cytopathic effect in MT-2 cell culture; format: cell-based; details: MT-2 cells
Procedure: as §3, §4

[9] = biological target: T2, HIV-1 integrase; assay: Integrase binding to HIV DNA, Schiff base crosslinking assay; details: Mg2+
Procedure: Integrase binding to HIV DNA using the shiff-base assay. The shiff-base assay was performed as described (Mazumder and Pommier, 1995). Briefly, 300 nM recombinant IN was incubated with inhibitors (at the indicated concentration) for 15 min at 37° C. Subsequently, 20 nM of 5′-end labeled substrate containing the abasic oligonucleotide (FIG. 6A) was added for 10 min at room temperature in reaction buffer described above for integrase catalytic assays. A freshly prepared solution of sodium borohydride (0.1 M final concentration) was added for 5 min. An equal volume (10 μl) of 2×SDS-polyacrylamide gel electrophoresis buffer (Invitrogen, Carlsbad, Calif.) was added in each reaction. Reaction products were heated at 95° C. for 1 min before analysis by electrophoresis in a 12-20% polyacrylamide gels (Invitrogen, Calif., USA). Gels were dried and reaction products were quantitated using the same method as described above.

CC(C)c1ccc(O)c(=O)c(O)c1 [NSC 18806, β-thujaplicinol]
IC50 [1]: 32 µM
inhibition of integrase-DNA disulfide-crosslinking (in words) ([1]; drug 1 mM, Mg2+ or Mn2+ (FIG. 5B)): metal-dependent inhibition
IC50 ([2]; Mg2+): 18.1 ± 6.2 µM
IC50 ([2]; Mn2+): 5 µM
IC50 ([3]; Mg2+): > 333 µM
IC50 ([3]; Mn2+): 23.8 µM
inhibition of disintegration (in words) ([3]; Mg2+): inability of NSC 18806 to inhibit disintegration
inhibition of disintegration (in words) ([3]; Mn2+): only inhibited in the presence of Mn^2+ at high drug concentration
inhibition at 333 µM ([3]; read-out: inhibition activity, disintegration): 5 to 20%
IC50 for 3′-P relative to IC50 for ST ([4]; 21 bp duplex, in the presence of either Mg2+ or Mn2+): approximately 5 fold
IC50 ([4]; Mg2+): 21.6 ± 3.4 µM
IC50 ([4]; Mn2+): 4.8 ± 2.5 µM
IC50 ([5]; Mg2+): 117 ± 7.1 µM
IC50 ([5]; Mn2+): 24.6 µM
concentrations with presence of toxicity [6]: ≥ 12 µM
inhibition of HIV-1 protease (in words) [7]: failed to inhibit HIV-1 protease
IC50 ([8]; Human immunodeficiency virus 1, MT2, 96 h, four days after infection, read-out: estimated IC50, protection of infected cells from HIV-induced cytopathic effect): ~12 µM
activity in HIV infectivity assay (in words) [8]: exhibits cytoprotective activity
inhibition of Schiff base IN-DNA crosslinking (in words) [9]: did not block

Source: patent publication US20100152301A1, “Treatment of Viral Infections” (GOVERNMENT OF THE US, AS REPRESENTED BY THE SECRETARY, …, priority 2005, published 2010)
